# Patent publication US20240002375A1, “2-(INDAZOL-5-YL)-6-(PIPERIDIN-4-YL)-1,7-NAPHTHYRIDINE DERIVATIVES AND RELATED COMPOUNDS AS MODULATORS FOR SPLICING NUCLEIC ACIDS AND FOR THE TRE” (REMIX THERAPEUTICS INC., priority 2020, published 2024)
# Where a name gives a salt, the structure may show the parent alone. Read-outs that look alike come from different tables or passages of the source.
# Key:
# Type in all cases: cell-based
# [1] = system: HTT mRNA; experiment: Splicing assay (RT-qPCR) of HTT mRNA alternative junction (AJ) and canonical junction (CJ)
# Method in brief: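 A673 (adherent, 24 h pre-plating) or K562 cells treated 24 h at 37 °C with an 11-point 3-fold dilution series, top 10 uM, DMSO ≤0.25%. Lysates analysed by one-step RT-qPCR for HTT canonical (CJ) and alternative-exon (AJ) junctions, normalised to PPIA (A673) or GAPDH/GUSB (K562).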
# [2] = system: HTT CJ mRNA; experiment: Gene panel canonical junction qPCR splicing assay, HTT; conditions: Table 4, read-out: HTT IC50 (decrease in CJ mRNA levels)
# Method in brief: (§1)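 A673 or K562 cells treated with compound; canonical-junction mRNA measured by RT-qPCR with junction-spanning primer/probe sets, normalized to GAPDH, GUSB or PPIA and DMSO (2^−ΔΔCt). IC50 for CJ decrease from 4-parameter logistic fit of percentage response.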
# [3] = system: SMN2 CJ mRNA; experiment: Gene panel canonical junction qPCR splicing assay, SMN2; conditions: Table 4, read-out: SMN2 IC50 (decrease in CJ mRNA levels)
# Method in brief: as §1
# [4] = system: Target C CJ mRNA; experiment: Gene panel canonical junction qPCR splicing assay, Target C; conditions: Table 4, read-out: Target C IC50 (decrease in CJ mRNA levels)
# Method in brief: as §1
# [5] = decrease in CJ mRNA, A673 or K562 cells, 24 hours, read-out: HTT CJ IC50
# [6] = increase in AJ mRNA, A673 or K562 cells, 24 hours, read-out: HTT AJ AC50
# [7] = 24 h, read-out: HTT AJ AC50 (nM)
# [8] = 24 h, read-out: HTT CJ IC50 (nM)
SMILES,"IC50 [1, 5] [nM]",IC50 [2] [nM],IC50 [3] [nM],IC50 [4] [nM],"AC50 [1, 6] [nM]","AC50 [1, 7] [nM]","IC50 [1, 8] [nM]"
"Cc1cn2cc(-c3ccc4nc(C5CCNCC5)ccc4n3)c(O)cc2n1 [Compound 149, 2-methyl-6-[6-(piperidin-4-yl)-1,5-naphthyridin-2-yl]imidazo[1,2-a]pyridin-7-ol]",> 10000,> 10000,100 to 1000,> 10000,> 10000,,
"Cc1cn2nc(-c3ccc4nc(C5CCNCC5)ccc4n3)c(O)c2c(C)n1 [Compound 150, 4,6-dimethyl-2-[6-(piperidin-4-yl)-1,5-naphthyridin-2-yl]pyrazolo[1,5-a]pyrazin-3-01]",< 100,< 100,< 100,< 100,< 100,,
"Cc1cn2cc(-c3ccc4nc(C5CCNCC5)ccc4n3)c(O)c(C)c2n1 [Compound 151, 2,8-dimethyl-6-(6-(piperidin-4-yl)-1,5-naphthyridin-2-yl)imidazo[1,2-a]pyridin-7-ol hydrochloride]",100 to 1000,100 to 1000,100 to 1000,100 to 1000,100 to 1000,,
"c1c[nH]c(-c2ccc3nc(C4CCNCC4)ccc3n2)n1 [Compound 152, 2-(1H-imidazol-2-yl)-6-(piperidin-4-yl)-1,5-naphthyridine]",> 10000,> 10000,1000 to 10000,> 10000,> 10000,,
"Cn1cc2cc(-c3ccc4nc(N5CC[C@@H](NC(C)(C)C)C5)ccc4n3)c(O)cc2n1 [Compound 153, 5-{6-[(3R)-3-(tert-butylamino)pyrrolidin-1-yl]-1,5-naphthyridin-2-yl}-2-methylindazol-6-ol]",< 100,< 100,< 100,< 100,< 100,,
"Cn1cc2cc(-c3ccc4nc(N5CC[C@H](NC6CCC6)C5)ccc4n3)c(O)cc2n1 [Compound 156, 5-{6-[(3S)-3-(cyclobutylamino)pyrrolidin-1-yl]-1,5-naphthyridin-2-yl}-2-methylindazol-6-ol]",,< 100,< 100,100 to 1000,,< 100,< 100
Cn1cc2cc(-c3ccc4nc(N5CCC(NC6CC6)C5)ccc4n3)c(O)cc2n1 (centres unmarked) [Compound 158],< 100,< 100,< 100,< 100,< 100,,
"Cn1cc2cc(-c3ccc4nc(N5CC[C@]67CCN[C@H]6CC[C@H]57)ccc4n3)c(O)cc2n1 [Compound 160, 5-{6-[(1R,55,85)-4,9-diazatricyclo[6.3.0.0^{1,5}]undecan-4-yl]-1,5-naphthyridin-2-yl}-2-methylindazol-6-ol]",100 to 1000,100 to 1000,< 100,1000 to 10000,100 to 1000,,
Cn1cc2cc(-c3ccc4nc(N5CCC56CCNC6)ccc4n3)c(O)cc2n1 (centres unmarked) [Compound 162],> 10000,> 10000,1000 to 10000,> 10000,> 10000,,
Cn1cc2cc(-c3ccc4nc(N5CCC56CCCNC6)ccc4n3)c(O)cc2n1 (centres unmarked) [Compound 163],> 10000,> 10000,100 to 1000,> 10000,> 10000,,
"CC(C)(C)NC1CCN(c2ccc3nc(-c4cc5cnccc5cc4O)ccc3n2)C1 (centres unmarked) [Compound 166, 7-{6-[3-(tert-butylamino)pyrrolidin-1-yl]-1,5-naphthyridin-2-yl}isoquinolin-6-ol]",> 10000,> 10000,> 10000,> 10000,> 10000,,
"Cn1cnc2cc(-c3ccc4nc(N5CCC(NC(C)(C)C)C5)ccc4n3)c(O)cc2c1=O (centres unmarked) [Compound 167, 7-{6-[3-(tert-butylamino)pyrrolidin-1-yl]-1,5-naphthyridin-2-yl}-6-hydroxy-3-methylquinazolin-4-one]",> 10000,> 10000,> 10000,> 10000,> 10000,,
CC(C)N[C@H]1CCN(c2ccc3nc(-c4cc5cn(C)nc5cc4O)ccc3n2)C1 [Compound 171],,< 100,< 100,100 to 1000,,< 100,< 100
Cc1cc(=O)c2cc(O)c(-c3ccc4nc(N5CCC(NC(C)(C)C)C5)ccc4n3)cc2o1 (centres unmarked) [Compound 174],> 10000,> 10000,> 10000,> 10000,> 10000,,

# Continued, in another order:
"IC50 [1, 5] [nM]",IC50 [2] [nM],IC50 [3] [nM],IC50 [4] [nM],SMILES,"AC50 [1, 6] [nM]","AC50 [1, 7] [nM]","IC50 [1, 8] [nM]"
< 100,< 100,< 100,< 100,"Cn1cc2cc(-c3ccc4nc(N5CC[C@H](NC(C)(C)C)C5)ccc4n3)c(O)cc2n1 [Compound 154, 5-{6-[(3S)-3-(tert-butylamino)pyrrolidin-1-yl]-1,5-naphthyridin-2-yl}-2-methylindazol-6-ol]",< 100,,
< 100,< 100,< 100,100 to 1000,Cn1cc2cc(-c3ccc4nc(N5CC[C@@H](NC6CCC6)C5)ccc4n3)c(O)cc2n1 [Compound 157],< 100,,
1000 to 10000,1000 to 10000,100 to 1000,1000 to 10000,Cn1cc2cc(-c3ccc4nc(OC5CNC5)ccc4n3)c(O)cc2n1 [Compound 159],1000 to 10000,,
> 10000,> 10000,1000 to 10000,> 10000,"COc1cc2ccncc2cc1-c1ccc2nc(N3CCC(NC(C)(C)C)C3)ccc2n1 (centres unmarked) [Compound 161, N-tert-butyl-1-[6-(6-methoxyisoquinolin-7-yl)-1,5-naphthyridin-2-yl]pyrrolidin-3-amine]",> 10000,,
100 to 1000,100 to 1000,100 to 1000,100 to 1000,Cn1cc2cc(-c3ccc4nc(N5CCC56CCNCC6)ccc4n3)c(O)cc2n1 [Compound 164],100 to 1000,,
1000 to 10000,1000 to 10000,1000 to 10000,1000 to 10000,Cn1cc2cc(-c3ccc4nc(N5CC(NC(C)(C)C)C5)ccc4n3)c(O)cc2n1 [Compound 165],1000 to 10000,,
> 10000,> 10000,> 10000,> 10000,"COc1cc2c(=O)n(C)cnc2cc1-c1ccc2nc(N3CCC(NC(C)(C)C)C3)ccc2n1 (centres unmarked) [Compound 168, 7-{6-[3-(tert-butylamino)pyrrolidin-1-yl]-1,5-naphthyridin-2-yl}-6-methoxy-3-methylquinazolin-4-one]",> 10000,,
< 100,< 100,< 100,100 to 1000,"CN[C@H]1CCN(c2ccc3nc(-c4cc5cn(C)nc5cc4O)ccc3n2)C1 [Compound 170, 2-methyl-5-{6-[(3S)-3-(methylamino)pyrrolidin-1-yl]-1,5-naphthyridin-2-yl}indazol-6-ol]",100 to 1000,,
< 100,< 100,< 100,100 to 1000,CN[C@@H]1CCN(c2ccc3nc(-c4cc5cn(C)nc5cc4O)ccc3n2)C1 [Compound 172],100 to 1000,,
< 100,< 100,< 100,< 100,CC(C)N[C@@H]1CCN(c2ccc3nc(-c4cc5cn(C)nc5cc4O)ccc3n2)C1 [Compound 173],< 100,,
< 100,< 100,< 100,< 100,"Cc1nc2cc(O)c(-c3ccc4nc(N5CCC(NC(C)(C)C)C5)ccc4n3)cc2o1 (centres unmarked) [Compound 175, 6-{6-[3-(tert-butylamino)pyrrolidin-1-yl]-1,5-naphthyridin-2-yl}-2-methyl-1,3-benzoxazol-5-ol]",< 100,,
